According to patent US9115101B2 (Genentech, Inc., priority 2012, dated 2015):

molecular target: T1, RORc ligand binding domain (Homo sapiens, UniProt P51449); assay: In Vitro RORc Ligand Binding Assay (25-[3H]hydroxycholesterol radioligand filtration); details: In Vitro RORc Ligand Binding Assay; Table 4; read-out: RORc IC50
T1 construct: host or cells: E. coli
T1 sequence (P51449 269-508 limits assumed): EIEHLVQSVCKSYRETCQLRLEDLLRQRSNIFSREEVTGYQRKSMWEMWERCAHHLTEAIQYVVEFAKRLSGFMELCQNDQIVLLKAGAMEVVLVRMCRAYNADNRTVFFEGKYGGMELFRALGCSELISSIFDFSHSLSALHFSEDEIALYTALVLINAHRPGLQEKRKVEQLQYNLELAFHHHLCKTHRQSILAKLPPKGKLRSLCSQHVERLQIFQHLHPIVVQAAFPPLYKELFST

Question: For C[C@H](O)C(=O)N1CCN(c2ccc(CN3[C@@H](C)CCC(c4ccccc4)S3(=O)=O)c(F)c2)CC1 (single isomer, unassigned) [Example 78], which IC50 is on record?
Answer: The IC50 was 29 nM.

Question: Which IC50 does the source give for C[C@H](O)C(=O)N1CCN(c2ccc(CN3[C@@H](C)CCC(c4ccccc4)S3(=O)=O)c(F)c2)CC1 (single isomer, unassigned) [Example 79] here?
Answer: The IC50 was 82 nM.

Question: CC(=O)N1CCCN(c2ccc(CN3[C@@H](C)CCC(c4ccccc4)S3(=O)=O)c(F)c2)CC1 (single isomer, unassigned) [Example 80] was tested. Which IC50 did it give?
Answer: Its IC50 is 14 nM.

Question: How did the IC50 turn out when CC(=O)N1CCCN(c2ccc(CN3[C@@H](C)CCC(c4ccccc4)S3(=O)=O)c(F)c2)CC1 (single isomer, unassigned) [Example 81] was run?
Answer: Its IC50 is 118 nM.

Question: For C[C@H]1CCC(c2ccccc2)S(=O)(=O)N1Cc1ccc(N2CCCN(C(=O)CC#N)CC2)cc1F (single isomer, unassigned) [Example 82], which IC50 is on record?
Answer: The IC50 was 22 nM.

Question: How did the IC50 turn out when C[C@H]1CCC(c2ccccc2)S(=O)(=O)N1Cc1ccc(N2CCCN(C(=O)CC#N)CC2)cc1F (single isomer, unassigned) [Example 83] was run?
Answer: The IC50 was 213 nM.

Question: With C[C@H]1CCC(c2ccccc2)S(=O)(=O)N1Cc1ccc(N2CC3(CCOCC3)C2)cc1F (single isomer, unassigned) [Example 84] as the compound, how does the IC50 read?
Answer: Its IC50 is 23 nM.

Question: For C[C@H]1CCC(c2ccccc2)S(=O)(=O)N1Cc1ccc(N2CC3(CCOCC3)C2)cc1F (single isomer, unassigned) [Example 85], which IC50 is on record?
Answer: The IC50 was 89 nM.

Question: C[C@H]1CCC(c2ccccc2)S(=O)(=O)N1Cc1ccc(N2CCC(C#N)CC2)cc1F (single isomer, unassigned) [Example 86] was tested. Which IC50 did it give?
Answer: Its IC50 is 15 nM.

Question: C[C@H]1CCC(c2ccccc2)S(=O)(=O)N1Cc1ccc(N2CCC(C#N)CC2)cc1F (single isomer, unassigned) [Example 87] was tested. Which IC50 did it give?
Answer: Its IC50 is 200 nM.

Question: Which IC50 does the source give for C[C@H]1CCC(c2ccccc2)S(=O)(=O)N1Cc1ccc(N2CCCNCC2)cc1F (single isomer, unassigned) [Example 88] here?
Answer: Its IC50 is 819 nM.

Question: Which IC50 does the source give for C[C@H]1CCC(c2ccccc2)S(=O)(=O)N1Cc1ccc(N2CCCNCC2)cc1F (single isomer, unassigned) [Example 89] here?
Answer: Its IC50 is 1250 nM.

Question: Which IC50 does the source give for CO[C@@H](C)C(=O)N1CCCN(c2ccc(CN3[C@@H](C)CCC(c4ccccc4)S3(=O)=O)c(F)c2)CC1 (single isomer, unassigned) [Example 90] here?
Answer: The IC50 was 76 nM.

Question: For C[C@H](O)C(=O)N1CCCN(c2ccc(CN3[C@@H](C)CCC(c4ccccc4)S3(=O)=O)c(F)c2)CC1 (single isomer, unassigned) [Example 91], which IC50 is on record?
Answer: Its IC50 is 254 nM.

Question: With CO[C@@H](C)C(=O)N1CCCN(c2ccc(CN3[C@@H](C)CCC(c4ccccc4)S3(=O)=O)c(F)c2)CC1 (single isomer, unassigned) [Example 92] as the compound, how does the IC50 read?
Answer: Its IC50 is 154 nM.

Question: How did the IC50 turn out when C[C@H](O)C(=O)N1CCCN(c2ccc(CN3[C@@H](C)CCC(c4ccccc4)S3(=O)=O)c(F)c2)CC1 (single isomer, unassigned) [Example 93] was run?
Answer: Its IC50 is 49 nM.

Question: For C[C@H]1CCC(c2ccccc2)S(=O)(=O)N1Cc1ccc(N2CC3(CCOC3)C2)cc1F (single isomer, unassigned) [Example 94], which IC50 is on record?
Answer: The IC50 was 54 nM.

Question: C[C@H]1CCC(c2ccccc2)S(=O)(=O)N1Cc1ccc(N2CC3(CCOC3)C2)cc1F (single isomer, unassigned) [Example 95] was tested. Which IC50 did it give?
Answer: Its IC50 is 93 nM.

Question: C[C@H]1CCC(c2ccccc2)S(=O)(=O)N1Cc1ccc(N2CCNCC2)cc1F (single isomer, unassigned) [Example 96] was tested. Which IC50 did it give?
Answer: The IC50 was 4480 nM.

Question: For C[C@H]1CCC(c2ccccc2)S(=O)(=O)N1Cc1ccc(N[C@H]2CC[C@@H](C#N)CC2)cc1F (single isomer, unassigned) [Example 97], which IC50 is on record?
Answer: Its IC50 is 40 nM.

Question: How did the IC50 turn out when C[C@H]1CCC(c2ccccc2)S(=O)(=O)N1Cc1ccc(N2CCC3(CC2)COC3)cc1F (single isomer, unassigned) [Example 99] was run?
Answer: The IC50 was 44 nM.

Question: With C[C@H]1CCC(c2ccccc2)S(=O)(=O)N1Cc1ccc(N2CCC3(CC2)COC3)cc1F (single isomer, unassigned) [Example 100] as the compound, how does the IC50 read?
Answer: The IC50 was 12 nM.

Question: With C[C@H]1CCC(c2ccccc2)S(=O)(=O)N1Cc1ccc(N2CCC3(COC3)C2)cc1F (single isomer, unassigned) [Example 102] as the compound, how does the IC50 read?
Answer: Its IC50 is 25 nM.

Question: C[C@H]1CCC(c2ccccc2)S(=O)(=O)N1Cc1ccc(N2CCC(S(=O)(=O)N(C)C)CC2)cc1F (single isomer, unassigned) [Example 103] was tested. Which IC50 did it give?
Answer: Its IC50 is 146 nM.

Question: For C[C@H]1CCC(c2ccccc2)S(=O)(=O)N1Cc1ccc(N2CCC(CS(C)(=O)=O)CC2)cc1F (single isomer, unassigned) [Example 104], which IC50 is on record?
Answer: The IC50 was 54 nM.

Question: Which IC50 does the source give for C[C@H]1CCC(c2ccccc2)S(=O)(=O)N1Cc1ccc(N2CCC(CS(C)(=O)=O)CC2)cc1F (single isomer, unassigned) [Example 105] here?
Answer: The IC50 was 18 nM.

Question: How did the IC50 turn out when C[C@H]1CCC(c2ccccc2)S(=O)(=O)N1Cc1ccc(N2CC(C3CCOCC3)C2)cc1F (single isomer, unassigned) [Example 106] was run?
Answer: Its IC50 is 20 nM.

Question: C[C@H]1CCC(c2ccccc2)S(=O)(=O)N1Cc1ccc(N2CCC3(COC3)C2)cc1F (single isomer, unassigned) [Example 107] was tested. Which IC50 did it give?
Answer: Its IC50 is 20 nM.

Question: With C[C@H]1CCC(c2ccccc2)S(=O)(=O)N1Cc1ccc(N2CC(C3CCOCC3)C2)cc1F (single isomer, unassigned) [Example 108] as the compound, how does the IC50 read?
Answer: The IC50 was 33 nM.

Question: How did the IC50 turn out when C[C@H]1CCC(c2ccccc2)S(=O)(=O)N1Cc1ccc(N2CCC(S(=O)(=O)N(C)C)CC2)cc1F (single isomer, unassigned) [Example 109] was run?
Answer: The IC50 was 34 nM.

Question: C[C@H]1CCC(c2ccccc2)S(=O)(=O)N1Cc1ccc(N[C@H]2CC[C@@H](C#N)CC2)cc1F (single isomer, unassigned) [Example 110] was tested. Which IC50 did it give?
Answer: Its IC50 is 35 nM.

Question: For C[C@H]1CCC(c2ccccc2)S(=O)(=O)N1Cc1ccc(N[C@H]2CC[C@H](C#N)CC2)cc1F (single isomer, unassigned) [Example 111], which IC50 is on record?
Answer: The IC50 was 49 nM.

Question: How did the IC50 turn out when C[C@H]1CCC(c2ccccc2)S(=O)(=O)N1Cc1ccc(N[C@H]2CC[C@H](C#N)CC2)cc1F (single isomer, unassigned) [Example 112] was run?
Answer: The IC50 was 30 nM.

Question: Which IC50 does the source give for CC(=O)N1CCN(c2ccc(CN3[C@@H](C)CCC(c4ccccc4)S3(=O)=O)cc2C#N)CC1 (single isomer, unassigned) [Example 113] here?
Answer: Its IC50 is 2750 nM.

Question: CC(=O)N1CCN(c2ccc(CN3[C@@H](C)CCC(c4ccccc4)S3(=O)=O)cc2C#N)CC1 (single isomer, unassigned) [Example 114] was tested. Which IC50 did it give?
Answer: The IC50 was 201 nM.

Question: CC(=O)N1CCN(c2ccc(CN3[C@@H](C)CCC(c4ccccc4F)S3(=O)=O)c(F)c2)CC1 (single isomer, unassigned) [Example 116] was tested. Which IC50 did it give?
Answer: Its IC50 is 37 nM.

Question: CC(=O)N1CCN(c2ccc(CN3[C@@H](C)CCC(c4ccccc4F)S3(=O)=O)c(F)c2)CC1 (single isomer, unassigned) [Example 117] was tested. Which IC50 did it give?
Answer: Its IC50 is 3 nM.

Question: How did the IC50 turn out when CC(=O)N1CCN(c2ccc(CN3CC(C)CC(c4ccccc4)S3(=O)=O)c(F)c2)CC1 (single isomer, unassigned) [Example 118, 1-{4-[3-Fluoro-4-(4-methyl-1,1-dioxo-6-phenyl-[1,2]thiazinan-2-ylmethyl)-phenyl]-piperazin-1-yl}-ethanone] was run?
Answer: Its IC50 is 20 nM.

Question: Which IC50 does the source give for CC(=O)N1CCN(c2ccc(CN3CC(C)CC(c4ccccc4)S3(=O)=O)c(F)c2)CC1 (single isomer, unassigned) [Example 119, 1-{4-[3-Fluoro-4-(4-methyl-1,1-dioxo-6-phenyl-[1,2]thiazinan-2-ylmethyl)-phenyl]-piperazin-1-yl}-ethanone] here?
Answer: The IC50 was 2 nM.

Question: For CC(=O)N1CCN(c2ccc(CN3[C@@H](C)CCC(c4ccc(F)cc4)S3(=O)=O)c(F)c2)CC1 (single isomer, unassigned) [Example 121], which IC50 is on record?
Answer: The IC50 was 14 nM.

Question: Which IC50 does the source give for CC(=O)N1CCN(c2ccc(CN3[C@@H](C)CCC(c4ccc(F)cc4)S3(=O)=O)c(F)c2)CC1 (single isomer, unassigned) [Example 122] here?
Answer: The IC50 was 47 nM.

Question: With CC(=O)N1CCN(c2ccc(CN3[C@@H](C)CCC(c4cccc(F)c4)S3(=O)=O)c(F)c2)CC1 (single isomer, unassigned) [Example 127] as the compound, how does the IC50 read?
Answer: The IC50 was 58 nM.

Question: CC(=O)N1CCN(c2ccc(CN3[C@@H](C)CCC(c4cccc(F)c4)S3(=O)=O)c(F)c2)CC1 (single isomer, unassigned) [Example 128] was tested. Which IC50 did it give?
Answer: The IC50 was 52 nM.

Question: How did the IC50 turn out when CC(=O)N1CCN(c2ccc(CN3[C@@H](C)CCC(c4ccccc4)S3(=O)=O)cc2C)CC1 (single isomer, unassigned) [Example 129] was run?
Answer: Its IC50 is 432 nM.

Question: With CC(=O)N1CCN(c2ccc(CN3[C@@H](C)CCC(c4ccccc4)S3(=O)=O)cc2C)CC1 (single isomer, unassigned) [Example 130] as the compound, how does the IC50 read?
Answer: Its IC50 is 72 nM.

Question: CC(=O)N1CCN(c2ccc(CN3[C@@H](C)CCC(c4ccccc4)S3(=O)=O)c(C)c2)CC1 (single isomer, unassigned) [Example 131] was tested. Which IC50 did it give?
Answer: Its IC50 is 501 nM.

Question: How did the IC50 turn out when CC(=O)N1CCN(c2ccc(CN3[C@@H](C)CCC(c4ccccc4)S3(=O)=O)c(C)c2)CC1 (single isomer, unassigned) [Example 132] was run?
Answer: Its IC50 is 3930 nM.

Question: With C[C@H]1CCC(c2ccccc2)S(=O)(=O)N1Cc1ccc(N2CCn3nccc3C2)cc1F (single isomer, unassigned) [Example 133] as the compound, how does the IC50 read?
Answer: Its IC50 is 244 nM.

Question: With C[C@H]1CCC(c2ccccc2)S(=O)(=O)N1Cc1ccc(N2CCn3nccc3C2)cc1F (single isomer, unassigned) [Example 134] as the compound, how does the IC50 read?
Answer: The IC50 was 330 nM.

Question: How did the IC50 turn out when C[C@H]1CCC(c2ccccc2)S(=O)(=O)N1Cc1ccc(N2CCC(c3nncn3C)CC2)cc1F (single isomer, unassigned) [Example 137] was run?
Answer: Its IC50 is 2480 nM.

Question: C[C@H]1CCC(c2ccccc2)S(=O)(=O)N1Cc1ccc(N2CCC(c3nncn3C)CC2)cc1F (single isomer, unassigned) [Example 138] was tested. Which IC50 did it give?
Answer: The IC50 was 1100 nM.

Question: How did the IC50 turn out when C[C@H]1CCC(c2ccccc2)S(=O)(=O)N1Cc1ccc(N2CCC(c3nccn3C)CC2)cc1F (single isomer, unassigned) [Example 139] was run?
Answer: The IC50 was 1390 nM.

Question: For C[C@H]1CCC(c2ccccc2)S(=O)(=O)N1Cc1ccc(N2CCC(c3nccn3C)CC2)cc1F (single isomer, unassigned) [Example 140], which IC50 is on record?
Answer: The IC50 was 410 nM.
